The values below are quoted from earlier work in paper PMC12123727 (BMC Cancer, 2025).

For one data set, the system named is DLBCL. As to conditions: patients with DLBCL, 2/19; cited from earlier work.
A further data set relates to r/r FL. Conditions: patients with r/r FL, cited from earlier work.

Regarding `O=C(/C=C/c1cccc(S(=O)(=O)Nc2ccccc2)c1)NO` [Belinostat, belinostat], in the data set with DLBCL, the ORR is 10.5%.

Consider `O=C(CCCCCCC(=O)Nc1ccccc1)NO` [Vorinostat, vorinostat], for which the “objective response rate (ORR)” value with r/r FL (19/39) was 49%. The “median PFS” value in the data set with r/r FL is recorded as 20 months.
